Assay: Hot stage microscopy: conversion between solid forms on heating
Type: physicochemical
Conditions: solid state; conversion to the new Form shown by observed change in crystal morphology
Protocol: Hot stage microscopy was performed using a Linkam hot stage (model FTIR 600) mounted on a Leica DM LP microscope. Sample was observed using a 20× objective. Sample was placed on a coverslip, and a second coverslip was then placed over the sample. Each sample was visually observed as the stage was heated. The hot stage was calibrated using USP melting point standards.
Characteristic data for new Form C was obtained with X-ray powder diffraction (XRPD), differential scanning calorimetry (DSC), hot stage microscopy, infrared spectroscopy (IR), Raman spectroscopy, and solid state ^13C cross polarization magic angle spinning nuclear magnetic resonance spectroscopy. The new Form is a crystalline material that melts near 99° C. […] The particle morphology is observed as rays, lathe, and/or blades. The new Form is the thermodynamically stable form above 65° C.

## CCCCCCOC(=O)CCC(=O)CN.Cl [Form C, hexyl 5-aminolevulinate hydrochloride]
  temperature range in which the new Form is the thermodynamically stable form: above 65 °C

Reference: US8927761B2, “Form of hexyl-5-aminolevulinate hydrochloride and methods of using the same” (Photocure ASA, priority 2012, dated 2015)
